Format in all cases: cell-based, rabbit
One assay deals with T1, wild-type PepT1 (Oryctolagus cuniculus, UniProt P36836).
T1 construct: expressed in transfected cells; host or cells: Xenopus laevis oocytes injected with cRNA
T1 sequence (P36836 1-707): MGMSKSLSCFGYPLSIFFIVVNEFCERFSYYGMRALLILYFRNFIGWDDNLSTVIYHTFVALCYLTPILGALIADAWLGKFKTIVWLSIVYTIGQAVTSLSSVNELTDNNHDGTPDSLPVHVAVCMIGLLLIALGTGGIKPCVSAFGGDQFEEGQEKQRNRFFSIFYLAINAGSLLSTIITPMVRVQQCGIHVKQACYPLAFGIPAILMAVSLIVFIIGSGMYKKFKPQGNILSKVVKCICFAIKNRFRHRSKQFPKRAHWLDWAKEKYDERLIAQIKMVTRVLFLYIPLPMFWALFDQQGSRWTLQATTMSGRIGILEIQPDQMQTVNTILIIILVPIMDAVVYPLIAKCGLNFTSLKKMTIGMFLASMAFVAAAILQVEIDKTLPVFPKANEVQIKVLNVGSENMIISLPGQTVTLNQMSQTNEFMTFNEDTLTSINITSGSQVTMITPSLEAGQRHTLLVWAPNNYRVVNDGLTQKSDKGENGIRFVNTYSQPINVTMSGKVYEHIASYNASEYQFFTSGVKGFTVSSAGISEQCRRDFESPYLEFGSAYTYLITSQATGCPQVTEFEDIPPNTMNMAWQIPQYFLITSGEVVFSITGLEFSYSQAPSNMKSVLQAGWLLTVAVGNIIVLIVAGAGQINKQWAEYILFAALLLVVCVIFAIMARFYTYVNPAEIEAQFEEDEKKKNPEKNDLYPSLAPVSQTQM
Kind of assay: Accumulation of [3H]-D-Phe-L-Gln above the extracellular concentration by oocytes expressing wild-type PepT1. As to the method:
(§1) Zero-trans uptake of [^3H]-D-Phe-L-Gln (17.4 Ci/mmole, custom synthesised, Cambridge Research Biochemicals, Stockton-on-Tees, UK) was performed as previously described ([Meredith, 2004]). Briefly, 5 oocytes were incubated in 100 μl of uptake medium (95 mM NaCl, 2 mM KCl, 1 mM CaCl2, 0.42 mM MgCl2, 10 mM Tris/Hepes pH 7.4 or Tris/Mes pH 5.5) with tracer (0.4 μM) [^3H]-D-Phe-L-Gln. After incubation, the oocytes were washed sequentially five times in 1 ml of ice-cold 120 mM NaCl solution, lysed individually with 100 μl 2% (w/v) SDS and liquid scintillation counted. As a control non-injected oocytes were also incubated in uptake medium with [^3H]-D-Phe-L-Gln as above.

The target in a further assay is T2, R282Q-PepT1 (Oryctolagus cuniculus, UniProt P36836, R282Q).
T2 construct: expressed in transfected cells; host or cells: Xenopus laevis oocytes injected with cRNA
T2 sequence (P36836 1-707 R282Q): T1 sequence (P36836 1-707) with R282Q
Put plainly: Inhibition of [3H]-D-Phe-L-Gln uptake into Xenopus oocytes expressing R282Q-PepT1 (competition, Ki). As to conditions: pHout 5.5, 0.4 μM [3H]-D-Phe-L-Gln. How it is done: as §1
(§2) The affinity of wild-type and mutant PepT1 were assessed by competition studies with 0.4 μM [^3H]-D-Phe-L-Gln and Gly-L-Gln present in the uptake medium in concentrations from 0 to 2 mM using the protocol above, and the Ki calculated using the method of [Deves and Boyd (1989)].

The next assay has as its target T3, R282K-PepT1 (Oryctolagus cuniculus, UniProt P36836, R282K).
T3 construct: expressed in transfected cells; host or cells: Xenopus laevis oocytes injected with cRNA
T3 sequence (P36836 1-707 R282K): T1 sequence (P36836 1-707) with R282K
Put plainly: Inhibition of [3H]-D-Phe-L-Gln uptake into Xenopus oocytes expressing R282K-PepT1 (competition, Ki). To be noted: pHout 5.5, 0.4 μM [3H]-D-Phe-L-Gln. How it is done: as §1, §2

Changes are numbered by the printed parent chain. Where a SMILES comes first, the peptide text is derived from it.

For the compound `NC(=O)CC[C@H](NC(=O)[C@H](N)Cc1ccccc1)C(=O)O` [D-Phe-L-Gln], the “accumulation above extracellular concentration” value at wild-type PepT1 (third comparison, printed as wild-type PepT1 at pHout 7.4, 8 h incubation) is recorded as 1.0 ± 0.4; at wild-type PepT1 (third comparison, printed as wild-type PepT1 at pHout 7.4, 24 h incubation) it was 1.5 ± 0.3; at wild-type PepT1 (wild-type PepT1, pHout 5.5, 8 h incubation), 8.0 ± 1.4; on wild-type PepT1 (wild-type PepT1, pHout 5.5, 24 h incubation) it was 8.3 ± 1.0; at wild-type PepT1 (wild-type PepT1, pHout 7.4, 8 h incubation), 2.5 ± 0.5; at wild-type PepT1 (wild-type PepT1, pHout 7.4, 24 h incubation), 3.1 ± 0.5 -fold.
As to `NCC(=O)N[C@@H](CCC(N)=O)C(=O)O` [Gly-L-Gln] (H-Gly-Gln-OH), the Ki on R282Q-PepT1 worked out at 460 ± 220 µM; at R282K-PepT1, 480 ± 260 µM.

Values taken from publication PMC2267855, “Site-directed mutagenesis of Arginine282 suggests how protons and peptides are co-transported by rabbit PepT1” (The International Journal of Biochemistry & Cell Biology, 2008).
